{"source": "the supplement of paper PMC10307832", "test_in_all_cases": "relative viability (nuclei count vs DMSO), 5 days (fraction); higher = more cells survive", "key": {"Pazopanib + Decitabine": {"compound": "Cc1ccc(Nc2nccc(N(C)c3ccc4c(C)n(C)nc4c3)n2)cc1S(N)(=O)=O [Pazopanib] + Nc1ncn([C@H]2C[C@H](O)[C@@H](CO)O2)c(=O)n1 [Decitabine] (partner 2 µM)", "method_in_brief": "(§1)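 Values are medians from duplicate plates. Each reflects relative viability, defined as the nuclei count of treated wells over that of vehicle wells. Lung cancer cell lines in 1536-well plates were pin-tool dosed one day after seeding with one drug alone or with a fixed anchor-drug dose plus five library-drug doses (not always all listed) in √10 steps, then fixed, stained and imaged at 4× after 5 days.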"}, "Pazopanib + Crizotinib": {"compound": "Cc1ccc(Nc2nccc(N(C)c3ccc4c(C)n(C)nc4c3)n2)cc1S(N)(=O)=O [Pazopanib] + C[C@@H](Oc1cc(-c2cnn(C3CCNCC3)c2)cnc1N)c1c(Cl)ccc(F)c1Cl [Crizotinib] (partner 1 µM)", "method_in_brief": "as §1"}, "Pazopanib + Bortezomib": {"compound": "Cc1ccc(Nc2nccc(N(C)c3ccc4c(C)n(C)nc4c3)n2)cc1S(N)(=O)=O [Pazopanib] + CC(C)C[C@H](NC(=O)[C@H](Cc1ccccc1)NC(=O)c1cnccn1)B(O)O [Bortezomib] (partner 0.002 µM)", "method_in_brief": "as §1"}, "Pazopanib + Olaparib": {"compound": "Cc1ccc(Nc2nccc(N(C)c3ccc4c(C)n(C)nc4c3)n2)cc1S(N)(=O)=O [Pazopanib] + O=C(c1cc(Cc2n[nH]c(=O)c3ccccc23)ccc1F)N1CCN(C(=O)C2CC2)CC1 [Olaparib] (partner 8 µM)", "method_in_brief": "as §1"}}}
{"cell line": "UMC-11", "values": [{"measurement": "relative viability", "setting": "Pazopanib + Decitabine; first compound 0.01 µM", "value": 0.598}, {"measurement": "relative viability", "setting": "Pazopanib + Decitabine; first compound 0.03162 µM", "value": 0.686}, {"measurement": "relative viability", "setting": "Pazopanib + Decitabine; first compound 0.1 µM", "value": 0.616}, {"measurement": "relative viability", "setting": "Pazopanib + Decitabine; first compound 0.3162 µM", "value": 0.578}, {"measurement": "relative viability", "setting": "Pazopanib + Decitabine; first compound 1 µM", "value": 0.49}, {"measurement": "relative viability", "setting": "Pazopanib + Crizotinib; first compound 0.01 µM", "value": 0.625}, {"measurement": "relative viability", "setting": "Pazopanib + Crizotinib; first compound 0.03162 µM", "value": 0.716}, {"measurement": "relative viability", "setting": "Pazopanib + Crizotinib; first compound 0.1 µM", "value": 0.708}, {"measurement": "relative viability", "setting": "Pazopanib + Crizotinib; first compound 0.3162 µM", "value": 0.675}, {"measurement": "relative viability", "setting": "Pazopanib + Crizotinib; first compound 1 µM", "value": 0.588}, {"measurement": "relative viability", "setting": "Pazopanib + Bortezomib; first compound 0.01 µM", "value": 0.668}, {"measurement": "relative viability", "setting": "Pazopanib + Bortezomib; first compound 0.03162 µM", "value": 0.988}, {"measurement": "relative viability", "setting": "Pazopanib + Bortezomib; first compound 0.1 µM", "value": 0.781}, {"measurement": "relative viability", "setting": "Pazopanib + Bortezomib; first compound 0.3162 µM", "value": 0.662}, {"measurement": "relative viability", "setting": "Pazopanib + Bortezomib; first compound 1 µM", "value": 0.976}, {"measurement": "relative viability", "setting": "Pazopanib + Olaparib; first compound 0.01 µM", "value": 0.425}, {"measurement": "relative viability", "setting": "Pazopanib + Olaparib; first compound 0.03162 µM", "value": 0.359}, {"measurement": "relative viability", "setting": "Pazopanib + Olaparib; first compound 0.1 µM", "value": 0.41}, {"measurement": "relative viability", "setting": "Pazopanib + Olaparib; first compound 0.3162 µM", "value": 0.509}, {"measurement": "relative viability", "setting": "Pazopanib + Olaparib; first compound 1 µM", "value": 0.34}]}
